One may read the melting point as the temperature of the solid-liquid transition.

This note sets out measurements from a melting point compilation (Tetko et al.).

In turn, `CNCc1nc2ccccc2s1` registered a melting point of 30 to 34 °C.
For the molecule `CC(Sc1ncccn1)C(=O)O` (stereo not given), the melting point is 135 to 137 °C.
Next, `CCc1ocnc1C(=O)O`: 104 to 106 °C; `CCNC1CCc2[nH]c3ccc(Cl)cc3c2C1` (stereo not given): 174 to 176 °C.
The molecule `O=Cc1ccc(-c2ccc(Cl)cc2C(F)(F)F)s1` showed a melting point of 58 to 60 °C.
Next, `CC(C)(C)OC(=O)NCc1nnn[nH]1`: 153 to 155 °C.
The molecule `O=C1OC(=O)c2cc(Cl)ccc21` gave a melting point of 96 to 98 °C.
On to `CCC(=O)c1cnccc1N`, for which the melting point lay within 134 to 136 °C.
Next, `CC(C)(C)C(=O)Nc1ccc(C(=O)CCl)cc1`: 132 to 134 °C; `COC(=O)C1CSCC(c2ccccc2)N1` (stereo not given): 96 to 98 °C; `Cn1cc2c(=O)[nH][nH]c(=O)c2c1-c1ccc(N)cc1`: 349 to 351 °C.
Turning to `CNc1nc(CC(C)=O)ns1`, the melting point was in the range of 298 to 300 °C.
In turn, `CC(NO)c1ccc(F)cc1` (stereo not given) returned a melting point of 74 to 76 °C.
To `Cc1cc2ccccc2c(=O)[nH]1` belongs 199 to 201 °C; to `CC(=O)N1CCc2cc(C(=O)C(C)Cl)ccc21` (stereo not given), 129 to 131 °C.
Next, `COc1cc2c(cc1OC)C(c1ccccc1)N(C(=O)CCl)CC2` (stereo not given): 218 to 222 °C; `COc1ccc(Nc2ccccc2C(=O)O)cc1`: 184 to 186 °C; `CCS(=O)(=O)c1ccc(Cl)c(C(=O)O)c1`: 144 to 146 °C.
For the molecule `Cc1ccc(SC2(C(=O)O)CCCC2)cc1`, the melting point was 80 to 82 °C.
`S=C1NCCO1`: the melting point was 95 to 97 °C.
As for `O=C1C2CC1CN(Cc1ccccc1)C2`, the melting point fell in the range of 64 to 66 °C.
Next, `O=C(O)CCN1CCSC1=O`: 91 to 93 °C; `COc1cc(OC)c(C(C)=O)cc1Cl`: 134 to 136 °C.
Next, `O=Cc1ccnc2[nH]ccc12`: 169 to 171 °C.
To `O=Cc1cc(Cl)c2c(c1)OCCCO2` belongs 78 to 82 °C; to `Cc1cc(Br)oc1C(=O)O`, 169 to 171 °C.
`O=C(O)C1Cc2cc(Cl)ccc2O1` (stereo not given) came in with a melting point of 114 to 118 °C.
To `Cc1cnc2c(c1)NC(=O)CO2` belongs 259 to 261 °C; to `Nc1ccc(Br)cc1O`, 138 to 140 °C.
In turn, `O=C(O)c1cc(F)c(F)cc1Br` registered a melting point of 118 to 122 °C.
`ClCc1ncc(-c2ccccc2)o1`: the melting point fell in the range of 63 to 65 °C.
To `O=C(CCl)NCC1CCSCC1` belongs 83 to 85 °C; to `N#CC(N)c1ccc(Cl)cc1Cl` (stereo not given), 80 to 82 °C.
`COC(=O)c1cc(Cl)cc([N+](=O)[O-])c1O` had a melting point of 163 to 165 °C.
Molecule `O=C(O)CN1C(=O)c2ccc([N+](=O)[O-])cc2C1=O` had a melting point of 197 to 199 °C.
Next, `O=C(O)c1cc(-c2ccncc2)nc2ccc(Br)cc12`: 340 to 342 °C; `Cc1nnc(N2CCCC2)c(C(N)=S)c1C`: 169 to 171 °C.
Next, `Cc1ccc(NC(=O)OCC(F)(F)F)s1`: 73 to 75 °C; `O=C(Nc1nncs1)C1CCCNC1` (stereo not given): 186 to 188 °C.
`Cc1cc(Cn2cc(Br)cn2)oc1C(=O)O`: the melting point is 122 to 124 °C.
Turning to `CCS(=O)(=O)Nc1ccccc1C(=O)O`, the melting point is 145 to 147 °C.
In turn, `CCC(Cc1ccccc1Br)C(=O)O` (stereo not given) yielded a melting point of 67 to 69 °C.
The molecule `CC(C)c1noc(N)n1` displayed a melting point of 101 to 103 °C.
For `CC(N)c1ccc(OCC(=O)NC2CC2)cc1` (stereo not given), the melting point was in the range of 75 to 77 °C.
To `CCOC=C1C(=O)N(c2ccc(Cl)cn2)C(=O)c2ccccc21` belongs 200 to 202 °C.
To `COc1cccc(NC(=O)OCC(F)(F)F)c1` belongs 58 to 60 °C; to `CCOc1cc(C(=O)N2CCCC(C(=O)O)C2)cc(OCC)c1OCC` (stereo not given), 183 to 185 °C; to `Nc1ncc(-c2cccc(F)c2)s1`, 168 to 170 °C.
As for `COc1ccc(C=O)cc1Cl`, the melting point lay in the range of 56 to 58 °C.
Next, `CCN(CCO)c1ccc(NS(=O)(=O)c2ccc(N)cc2)cc1`: 114 to 116 °C.
In turn, `O=C(O)c1cnc(-c2ccc3c(c2)CCO3)s1` returned a melting point of 215 to 217 °C.
Molecule `CCCCn1c(N)c(NCc2ccccc2OC)c(=O)[nH]c1=O` yielded a melting point of 198 to 200 °C.
`O=Cc1cn(-c2ccccc2)nc1-c1cccs1` came in with a melting point of 90 to 92 °C.
To `Cc1ccc(C)c(-c2n[nH]c(=O)c3ccccc23)c1` belongs 216 to 218 °C; to `Nc1ccc(SCc2ccccc2)cn1`, 94 to 96 °C; to `O=C(O)c1ccccc1Oc1cccc(Br)c1`, 108 to 110 °C.
Next, `CC(NC(=O)c1ccc2[nH]ncc2c1)C(=O)O` (stereo not given): 229 to 231 °C; `CC(C)c1ccc(-c2nc(CSc3nnc(N)[nH]3)cs2)cc1`: 156 to 158 °C; `Nc1ccc(-c2nc3ccccc3o2)cc1`: 170 to 172 °C.
`NCc1ccc(N2CCS(=O)(=O)CC2)cc1` returned a melting point of 97 to 99 °C.
Next, `O=C(O)CCc1ccc(OC(F)F)cc1`: 61 to 63 °C.
`O=C(O)CCc1nc(-c2nnc[nH]2)no1` returned a melting point of 246 to 248 °C.
Next, `CC(C)(C)OC(=O)N1CC(OCC(=O)O)C1`: 93 to 95 °C.
Next, `Nc1c(C(=O)O)cc(F)cc1[N+](=O)[O-]`: 219 to 221 °C; `CC(C)(C)OC(=O)N1CCN(S(=O)(=O)C2CNC2)CC1`: 132 to 134 °C.
To `CSc1nnnn1-c1cccc(N)c1` belongs 113 to 115 °C.
With `Cn1cc(C=NNC(N)=S)cn1`, the melting point lay in the range of 189 to 191 °C.
Consider `Cc1cccc(-n2nc(C(=O)O)cc2-c2ccc(-c3ccccc3)cc2)c1`, for which the melting point was in the range of 215 to 217 °C.
For `CCNS(=O)(=O)c1ccc(C(=O)O)cc1`, the melting point lay within 219 to 221 °C.
To `Nc1ncc(Cc2cccc(Br)c2)s1` belongs 105 to 107 °C; to `O=C(CC(F)(F)F)c1ccc(F)cc1`, 29 to 31 °C.
As for `Nc1ccc(-c2nc3cc(F)ccc3[nH]2)cc1`, the melting point lay in the range of 194 to 196 °C.
Next, `CCOC(=O)c1cnc2c(OC)cc(OC)cc2c1Cl`: 148 to 150 °C; `N#Cc1cccnc1NCc1cccc(C(=O)O)c1`: 197 to 199 °C; `NNc1ccc(S(=O)(=O)C(F)F)cc1`: 72 to 74 °C.
Next, `O=CN1CCc2cc(C(=O)CCl)ccc21`: 146 to 148 °C; `Cc1c(C(=O)O)cnn1C1CCCCC1`: 143 to 145 °C.
To `NNc1nc2cc(Cl)ccc2s1` belongs 209 to 211 °C; to `O=C(O)c1ccc(N2CCC(O)CC2)cc1`, 259 to 261 °C; to `CCNC(=O)NC(C)(C)C(=O)O`, 150 to 152 °C.
The molecule `CC(=O)c1c[nH]c(C(=O)O)c1` registered a melting point of 201 to 203 °C.
Regarding `O=C(O)CCc1ncc(-c2ccc(F)cc2F)o1`, the melting point was 169 to 171 °C.
`CC(=O)c1ccc(S(C)(=O)=O)c(F)c1` registered a melting point of 103 to 105 °C.
To `N#Cc1cnc2ccc(OC(F)F)cc2c1Cl` belongs 103 to 105 °C; to `COC(=O)c1c(C)nn(C)c1Cl`, 36 to 38 °C; to `O=C(O)C1(c2ccc(Cl)cc2)CCOCC1`, 181 to 183 °C.
Molecule `CC(C)C(NC(=O)COc1ccccc1)C(=O)O` (stereo not given) yielded a melting point of 165 to 167 °C.
Next, `COc1cc(N)ncc1Br`: 136 to 138 °C.
Take `CC(C)(C#N)S(=O)(=O)c1ccc(Br)cc1`: the melting point was 118 to 120 °C.
The molecule `Cc1noc(C)c1S(N)(=O)=O` displayed a melting point of 151 to 152 °C.
`O=C(O)C(Oc1ccccc1Br)c1ccccc1` (stereo not given) yielded a melting point of 143 to 145 °C.
Next, `CCOC(=O)/C=C1/SCC(=O)N1Cc1cc(C(C)=O)ccc1OCC`: 175 to 177 °C.
Next, `COc1cc(C(=O)NN)ccc1OCCC(C)C`: 88 to 90 °C; `Cc1cc(C(=O)O)c2c(C(C)C)noc2n1`: 202 to 204 °C; `OC(Cc1ccc(Cl)cc1)C(F)(F)F` (stereo not given): 66 to 68 °C.
As for `O=C(O)c1cccc(Oc2cccc(C(F)(F)F)c2)c1`, the melting point lay within 115 to 117 °C.
Next, `O=C(O)c1cc(S(=O)(=O)Cl)cc(Cl)c1Cl`: 151 to 153 °C; `O=C(O)c1oc2ccccc2c1CSC1=NCCS1`: 190 to 192 °C.
Next, `CCC(C#N)NC(=O)OC(C)(C)C` (stereo not given): 78 to 80 °C; `Cc1ccc(C(=O)O)cc1NC(=O)c1ccccc1`: 269 to 271 °C.
Next, `Cc1sc2nc(S)[nH]c(=O)c2c1C`: 328 to 330 °C.
Take `O=C(NC1CC1)C(Cl)c1ccccc1` (stereo not given): the melting point was 128 to 130 °C.
To `CCC(C)NC(=O)c1ccc(N)c(C)c1` (stereo not given) belongs 123 to 125 °C.
Next, `Nc1cccc(N2CCS(=O)(=O)CC2)c1`: 151 to 153 °C; `CCc1nn(C)c2[nH]nc(N)c12`: 123 to 125 °C; `NC(=O)c1cc(Br)c(N)c(Br)c1`: 182 to 184 °C.
To `Clc1nc(-c2ccccc2)ns1` belongs 51 to 53 °C; to `O=S(=O)(c1ccc(N2CCNCC2)nc1)N1CCOCC1`, 184 to 186 °C; to `Cc1cc(C=O)c(C)n1-c1ccc(Cl)c(C(F)(F)F)c1`, 88 to 90 °C.
For the molecule `Clc1ccc2nccn2n1`, the melting point was 114 to 116 °C.
For the molecule `C=CC(=O)NC(=O)NC`, the melting point fell in the range of 174 to 176 °C.
Next, `COC(=O)C(=O)CN1C(=O)c2ccccc2C1=O`: 134 to 136 °C; `CCOC(=O)c1c(N)oc(C)c1C(C)=O`: 135 to 137 °C; `Cc1ccc(C)n1-c1ccc(N)cc1`: 93 to 95 °C.
Next, `O=C(O)c1cccnc1S(=O)(=O)C(F)(F)F`: 126 to 128 °C.
Consider `Cc1ccc(S(=O)(=O)Cl)c(F)c1`, for which the melting point was 39 to 41 °C.
In turn, `O=[N+]([O-])c1ccc(N2CCNCC2)nc1` showed a melting point of 128 to 130 °C.
Next, `O=C(O)CSCC(=O)N1CCCCC1`: 91 to 93 °C; `Cc1cnc2c(c1)NCCN2`: 127 to 129 °C; `O=C(O)CCc1nc2ccccc2c(=O)n1C1CC1`: 183 to 185 °C.
